Laboratory results as given in ChEMBL document CHEMBL5329181, “Green synthesis and anti-biofilm activities of 3,5-disubstituted isoxazoline/isoxazole-linked secondary sulfonamide derivatives on Pseudomonas aeruginosa” (2023).
Active and inactive are the calls of the source. The rule behind the calls is not given here.

How the values were obtained:
[1] = system: Pseudomonas aeruginosa; experiment: Antibiofilm activity against Pseudomonas aeruginosa assessed as inhibition of biofilm formation at 200 uM incubated for 24 hrs by crystal violet staining based assay; assay type: functional, organism-based
[2] = system: Pseudomonas aeruginosa; experiment: Antibacterial activity against Pseudomonas aeruginosa H103 assessed as reduction in bacterial growth at 200 uM measured every 15 min for 24 hrs by optical density based analysis; assay type: functional, organism-based
[3] = system: Pseudomonas aeruginosa; experiment: Destabilization of mature biofilms in Pseudomonas aeruginosa assessed as biofilm dispersion at 200 uM incubated for 24 hrs by crystal violet staining based assay relative to control; assay type: functional

Compound | Activity [1] | Activity [2] | Activity [3]
NNC(=O)c1ccccc1S(=O)(=O)NCC1CC(c2ccccc2Cl)=NO1 (stereo not drawn) | inactive | inactive | inactive
NNC(=O)c1ccccc1S(=O)(=O)NCC1CC(c2ccc(Br)cc2)=NO1 (stereo not drawn) | inactive | inactive | 
CN[C@@H]1[C@@H](O[C@H]2O[C@H](CO)[C@@H](N)[C@H](O)[C@H]2O)O[C@H]2C[C@@H](N)[C@@H](O[C@H]3[C@H](O)[C@@H](O)[C@H](N)C[C@@H]3N)O[C@@H]2[C@@H]1O |  |  | 50%
NNC(=O)c1ccccc1S(=O)(=O)NCC1CC(c2ccc(Cl)cc2Cl)=NO1 (stereo not drawn) | inactive | inactive | 50%
NNC(=O)c1ccccc1S(=O)(=O)NCc1cc(-c2ccc(Br)cc2)no1 | inactive | inactive | 
NNC(=O)c1ccccc1S(=O)(=O)NCC1CC(c2ccc(Cl)c(Cl)c2)=NO1 (stereo not drawn) | inactive | inactive | 
NNC(=O)c1ccccc1S(=O)(=O)NCC1CC(c2ccccc2)=NO1 (stereo not drawn) | inactive | inactive | 
NNC(=O)c1ccccc1S(=O)(=O)NCc1cc(-c2ccc(Cl)cc2Cl)no1 | inactive | inactive | 50%
NNC(=O)c1ccccc1S(=O)(=O)NCC1CC(c2ccc(Cl)cc2)=NO1 (stereo not drawn) | inactive | inactive | inactive
C#CCNS(=O)(=O)c1ccccc1C(=O)NN | inactive | inactive | 
C=CCNS(=O)(=O)c1ccccc1C(=O)NN | inactive | inactive | 30%
Cc1ccc(C2=NOC(CNS(=O)(=O)c3ccccc3C(=O)NN)C2)cc1 (stereo not drawn) | inactive | inactive | 
COc1ccc(C2=NOC(CNS(=O)(=O)c3ccccc3C(=O)NN)C2)cc1 (stereo not drawn) | inactive | inactive | 50%
NNC(=O)c1ccccc1S(=O)(=O)NCC1CC(c2cccc([N+](=O)[O-])c2)=NO1 (stereo not drawn) | inactive | inactive | 
